Assay [1] has as its target T1, phosphoethanolamine methyltransferase, PfPMT (Plasmodium falciparum, UniProt Q8IDQ9).
T1 construct: gene PMT; recombinant 6His-tagged PfPMT (266 residues), 15N-labeled for NMR
Put plainly: 1H-15N HSQC NMR titration; also inhibition of purified enzyme in coupled assay. Type of assay: binding.

Assay [2] addresses T2, phosphoethanolamine methyltransferase, PfPMT (Plasmodium falciparum, UniProt Q8IDQ9).
T2 sequence (Q8IDQ9 1-266): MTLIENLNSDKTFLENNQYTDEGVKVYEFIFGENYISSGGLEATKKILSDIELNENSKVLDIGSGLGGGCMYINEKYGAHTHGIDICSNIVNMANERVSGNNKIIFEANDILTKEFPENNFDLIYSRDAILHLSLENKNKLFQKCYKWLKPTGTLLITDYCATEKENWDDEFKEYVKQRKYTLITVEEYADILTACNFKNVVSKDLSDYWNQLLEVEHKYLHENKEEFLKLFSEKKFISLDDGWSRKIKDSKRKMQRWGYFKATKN
The assay can be described thus: 1H-15N HSQC NMR titration (weak; no enzyme inhibition at […]). Format: binding. More on the design: gene PMT; recombinant 6His-tagged PfPMT, 15N-labeled for NMR.

Assay [3] has as its target T2, phosphoethanolamine methyltransferase, PfPMT. The assay can be described thus: enzyme-coupled spectrophotometric methyltransferase assay. Type of assay: biochemical. Also on record: gene PMT; recombinant purified PfPMT (pET-15b).
The target is the same in assay [4]. Put plainly: enzyme-coupled assay, substrate turnover by purified enzyme. More on the design: gene PMT; recombinant purified PfPMT (pET-15b). Format: biochemical.
The target is the same in assay [5]. Put plainly: enzyme-coupled assay, co-substrate turnover by purified enzyme. Format: biochemical. More on the design: gene PMT; recombinant purified PfPMT (pET-15b).

The inhibition is the share of the control response that was lost under treatment. For the compound `CCN(CC)Cc1cc(Nc2ccnc3cc(Cl)ccc23)ccc1O` [AQ, amodiaquine], the inhibition at 5 µM in assay [1] turned out to be 60%.

For `CCN(CC)CCCC(C)Nc1ccnc2cc(Cl)ccc12` (stereo not shown) [CQ, chloroquine], the “1H-15N HSQC NMR titration (weak; no enzyme inhibition at 200 μM)” value in assay [2] was “indicating site-specific binding, the affinity of CQ for PfPMT is much lower than that of AQ”.

`CCCCCCCCCCCC[N+](C)(C)C` [DDTA, Dodecyltrimethylammonium bromide]: the inhibition at 500 µM in assay [3] stood at 25%.

Take `CCCCCCCCCCCCCCCC[N+](C)(C)C` [HDTA, Hexadecyltrimethylammonium bromide]: the inhibition at 100 µM in assay [3] is approximately 50%.

With `CCCCCCCCCCCCCCCCOP(=O)([O-])OCC[N+](C)(C)C` [HePC, Miltefosine], the inhibition at 100 µM in assay [3] was approximately 60%.

Regarding `NCCOP(=O)(O)O` [P-EA, phosphoethanolamine], in assay [4], the “enzyme-coupled assay, substrate turnover by purified enzyme” value is given as “PfPMT activity increased proportionally to the concentration of these substrates”.

Consider `C[S+](CC[C@H](N)C(=O)[O-])C[C@H]1O[C@@H](n2cnc3c(N)ncnc32)[C@H](O)[C@@H]1O` (stereo partly shown) [SAM, S-adenosylmethionine], for which the “enzyme-coupled assay, co-substrate turnover by purified enzyme” value in assay [5] was “The effect of increasing concentrations of the substrate P-EA and co-substrate SAM on PfPMT activity was also measured”.

Source of the values: paper PMC2824672, “Identification of inhibitors of Plasmodium falciparum phosphoethanolamine methyltransferase using an enzyme-coupled transmethylation assay” (2010).
